Data: patent publication US5637731A (priority 1996, dated 1997)
“And” between values parts separate entries of the source, which are not always exact repeats. Equal values may be shown once. Where a name gives a salt, the structure may show the parent alone. Read-outs that look alike come from different tables or passages of the source.

What was measured:
[1] = biological target: muscarinic cholinergic receptor; assay: [^3 H]-Cis-methyldioxolane (^3 H-CD) Binding Assay (High Affinity); details: rat cerebral cortex, ^3 H-CD 1.0 nM, 25° C., 120 minutes, pH 7.4; high affinity agonist binding
[2] = biological target: muscarinic cholinergic receptor; format: binding, rat; details: pH 7.4
[3] = rat cerebral cortex, ^3 H-QNB 0.25 nM, 25° C., 120 minutes

CS[C@H]1CCN(CC#CCN(C)C)C1=O [(S)-1-[4-(Dimethylamino)-2-butynyl]-3-(methylthio)-2-pyrrolidinone]
Ki [1]: 6.4 µM
Ki [2, 3]: > 100 µM

NCC#CCN1CCCC1 [4-(1-Pyrrolidinyl)-2-butyn-1-amine dihydrochloride]
Ki [1]: 13 µM
Ki [2, 3]: > 100 µM

CCCCCCCCNC(=O)O[C@@H]1CCN(CC#CCN2CCCC2)C1=O [(R)-Octylcarbamic acid 2-oxo-1-[4-(1-pyrrolidinyl)-2-butynyl]-3-pyrrolidinyl ester]
Ki [1]: 0.24 µM
Ki [2, 3]: 0.2 µM

CCCCCCCCCC(=O)O[C@@H]1CCN(CC#CC[N+](C)(C)C)C1=O [(R)-4-[2-Oxo-3-[(1-oxodecyl)-oxy]-1-pyrrolidinyl]-N,N, N-trimethyl-2-butyn-1-aminium iodide]
Ki [1]: 0.05 µM
Ki [2, 3]: 0.2 µM

CC(=O)O[C@H]1CCN(CC#CCN(C)CCCCO)C1=O [(S)-3-(Acetyloxy)-1-[4-[(4-hydroxybutyl)methylamino]-2-butynyl]-2-pyrrolidinone]
Ki [1]: 8.21 µM
Ki [2, 3]: > 100 µM

CC(C)(C)C(=O)O[C@H]1CCN(CC#CCN2CCCC2)C1=O [(S)-2,2-Dimethylpropanoic acid 2-oxo-1-[4-(1-pyrrolidinyl)-2-butynyl]-3-pyrrolidinyl ester]
Ki [1]: 0.37 µM
Ki [2, 3]: 4.6 µM

CCCCCCCCOC(=O)O[C@@H]1CCN(CC#CCN2CCCC2)C1=O [(R)-Carbonic acid octyl 2-oxo-1-[4-(1-pyrrolidinyl)-2-butynyl]-3-pyrrolidinyl ester]
Ki [1]: 0.076 µM
Ki [2, 3]: 0.1 µM

O=C1C(O)CCN1CC#CCn1ccnc1 (stereo not shown) [1-[4-(1H-Imidazol-1-yl)-2-butynyl]-3-hydroxy-2-pyrrolidinone]
Ki [1]: 2 µM
Ki [2, 3]: > 100 µM

CN(CC#CCN1CC[C@H](O)C1=O)CCCCO [(S)-3-Hydroxy-1-[4-[(4-hydroxybutyl)methylamino]-2-butynyl]-2-pyrrolidinone]
Ki [1]: 1.3 µM
Ki [2, 3]: > 100 µM

[N-]=[N+]=N[C@@H]1CCN(CC#CCN2CCCC2)C1=O [(R)-3-Azido-1-[4-(1-pyrrolidinyl)-2-butynyl]-2-pyrrolidinone]
Ki [1]: 0.21 µM
Ki [2, 3]: 28 µM

COC(=O)O[C@H]1CCN(CC#CCN2CCCC2)C1=O [(S)-Carbonic acid methyl 2-oxo-1-[4-(1-pyrrolidinyl)-2-butynyl]-3-pyrrolidinyl ester]
Ki [2, 3]: 5.4 µM and 10.4 µM

CCCCCCCCNC(=O)O[C@H]1CC(=O)N(CC#CCN2CCCC2)C1 [(S)-Octylcarbamic acid 2-oxo-1-[4-(1-pyrrolidinyl)-2-butynyl]-4-pyrrolidinyl ester]
Ki [1]: 0.35 µM
Ki [2, 3]: 0.13 µM

CCCCCCCCOC(=O)O[C@H]1CCN(CC#CCN(C)C)C1=O [(S)-Carbonic acid 1-[4-(dimethylamino)-2-butynyl]-2-oxo-3-pyrrolidinyl octyl ester]
Ki [1]: 0.306 µM
Ki [2, 3]: 10 µM

N[C@H]1CCN(CC#CCN2CCCC2)C1=O [(S)-3-Amino-1-[4-(1-pyrrolidinyl)-2-butynyl]-2-pyrrolidinone dihydrochloride]
Ki [1]: 0.41 µM
Ki [2, 3]: 73.6 µM

CN(C)CC#CCN1CC[C@H](O[Si](C)(C)C(C)(C)C)C1=O [(S)-1-[4-(Dimethylamino)-2-butynyl]-3-[[(1,1-dimethylethyl)-dimethylsilyl]oxy]-2-pyrrolidinone]
Ki [1]: 18.2 µM
Ki [2, 3]: 14.3 µM

O=C1[C@H](O)CCN1CC#CCN1CCCC1 [(R)-3-Hydroxy-1-[4-(1-pyrrolidinyl)-2-butynyl]-2-pyrrolidinone]
Ki [1]: 0.125 µM
Ki [2, 3]: 3.4 µM

CN(C)C(=O)O[C@H]1CCN(CC#CCN2CCCC2)C1=O [(S)-Dimethylcarbamic acid 2-oxo-1-[4-(1-pyrrolidinyl)-2-butynyl]-3-pyrrolidinyl ester]
Ki [1]: 9.56 µM
Ki ([2]; read-out: ^3 H-QNB Ki): 40.3 µM

COC(=O)O[C@@H]1CCN(CC#CCN2CCCC2)C1=O [(R)-Carbonic acid methyl 2-oxo-1-[4-(1-pyrrolidinyl)-2-butynyl]-3-pyrrolidinyl ester]
Ki [1]: 0.35 µM
Ki [2, 3]: 27.3 µM

CC(C)(C)[Si](C)(C)O[C@H]1CCN(CC#CCN2CCCC2)C1=O [(S)-3-[[(1,1-Dimethylethyl)-dimethylsily]0xy]-1-[4-(1-pyrrolidinyl)-2-butynyl]-2-pyrrolidinone]
Ki [1]: 3 µM
Ki [2, 3]: 2.7 µM

CN(C)CC#CCNC(=O)C(F)(F)F [N-[4-Dimethylamino)-2-butynyl]-2,2,2-trifluoroacetamide monomhydrochloride]
Ki [1]: 6.1 µM
Ki [2, 3]: > 100 µM

CC(C)C(=O)O[C@H]1CCN(CC#CCN(C)C)C1=O [(S)-2-Methylpropanoic acid 1-[4-(dimethylamino)-2-butynyl]-2-oxo-3-pyrrolidinyl ester]
Ki [2, 3]: 610 µM

CS[C@@H]1CCN(CC#CCN2CCCC2)C1=O [(R)-3-(Methylthio)-1-[4-(1-pyrrolidinyl)-2-butynyl]-2-pyrrolidinone]
Ki [1]: 1.4 µM
Ki [2, 3]: 3.6 µM

O=C(OCc1ccccc1)O[C@@H]1CCN(CC#CCN2CCCC2)C1=O [(R)-Carbonic acid 2-oxo-1-[4-(1-pyrrolidinyl)-2-butynyl]-3-pyrrolidinyl phenylmethyl ester]
Ki [1]: 0.11 µM
Ki [2, 3]: 1.4 µM

CN(C)CC#CCN1CC[C@@H](OC(=O)C(C)(C)C)C1=O [(R)-2,2-Dimethylpropanoic acid 1-[4-(dimethylamino)-2-butynyl]-2-oxo-3-pyrrolidinyl ester]
Ki [2, 3]: 404 µM

CN(CC#CCN1CC[C@@H](O)C1=O)CCO [(R)-3-Hydroxy-1-[4-[(2-hydroxyethyl)methylamino]-2-butynyl]-2-pyrrolidinone]
Ki [1]: 1.8 µM
Ki [2, 3]: > 100 µM

O=C1[C@@H](O)CCN1CC#CCN1CCC[C@@H]1CO [[S-(R*,S*)]-3-Hydroxy-1-[4-[2-(hydroxymethyl)-1-pyrrolidinyl]-2-butynyl]-2-pyrrolidinone]
Ki [1]: 2.6 µM
Ki [2, 3]: > 100 µM

CS[C@@H]1CCN(CC#CCN(C)C)C1=O [(R)-1-[4-(Dimethylamino)-2-butynyl]-3-(methylthio)-2-pyrrolidinone]
Ki [1]: 6.1 µM
Ki [2, 3]: 108 µM

CCN(CC)CC#CCNC(=O)C(F)(F)F [N-[4-(Diethylamino)-2-butynyl]-2,2,2-trifluoroacetamide monohydrochloride]
Ki [1]: 4.07 µM
Ki [2, 3]: > 100 µM

CN(C)CC#CCN [N,N-Dimethyl-2-butyne-1,4-diamine dihydrochloride]
Ki [1]: 20.5 µM
Ki [2, 3]: > 100 µM

CC(C)C(=O)O[C@H]1CCN(CC#CC[N+](C)(C)C)C1=O [(S)-N,N, N-Trimethyl-4-[3-(2-methyl-1-oxopropoxy)-2-oxo-1-pyrrolidinyl]-2-butyn-1-aminium iodide]
Ki [1]: 6.96 µM
Ki [2, 3]: 64.3 µM

CCN(CC)CC#CCN1CCC(C)C1=O (racemic) [Racemic 1-[4-(1-Diethylamino)-2-butynyl]-3-methyl-2-pyrrolidinone]
Ki [1]: 5.1 µM
Ki [2, 3]: 6 µM

CN(C)CC#CCN1CCC(C)(O)C1=O (racemic) [Racemic-1-[4-Dimethylamino)-2-butynyl]-3-hydroxy-3-methyl-2-pyrrolidinone, Racemic 1-[4-(Dimethylamino)-2-butynyl]-3-hydroxy-3-methyl-2-pyrrolidinone]
Ki [1]: > 100 µM
Ki [2, 3]: > 100 µM

CC(C)C(=O)O[C@@H]1CCN(CC#CCN(C)C)C1=O [(R)-Porpanoic acid 2-methyl-1-[4-(dimethylamino)-2-butynyl]-2-oxo-3-pyrrolidinyl ester]
Ki [1]: 26 µM
Ki [2, 3]: 711 µM

CC1(O)CCN(CC#CCN2CCCC2)C1=O (racemic) [Racemic-3-Hydroxy-3-methyl-1-[4-(1-pyrrolidinyl)-2-butynyl]-2-pyrrolidinone, Racemic 3-hydroxy-3-methyl-1-[4-(1-pyrrolidinyl) 2-butynyl]-2-pyrrolidinone]
Ki [1]: 5.7 µM
Ki [2, 3]: 8.6 µM

O=C1[C@@H](O)CCN1CC#CCn1ccnc1 [(S)-3-Hydroxy-1-[4(1H-imidazol-1-yl)-2-butynyl]-2-pyrrolidinone]
Ki [1]: 0.12 µM
Ki [2, 3]: > 100 µM

CN(C)CC#CCN1CC[C@H](N)C1=O [(S)-3-Amino-1-[4-(dimethylamino)-2-butynyl]-2-pyrrolidinone dihydrochloride]
Ki [1]: 2.6 µM
Ki [2, 3]: > 100 µM

CC(C)(C)[Si](C)(C)OC[C@H]1CCCN1CC#CCN1CC[C@@H](O)C1=O [[R-(R*,R*)]-1-[4-[2-[[[(1,1-Dimethylethyl)dimethylsilyl]-oxy]methyl]-1-pyrrolidinyl]-2-butynyl]-3-hydroxy-2-pyrrolidinone]
Ki [1]: 4.2 µM
Ki [2, 3]: > 100 µM

CCCCCCCCCC(=O)O[C@H]1CCN(CC#CCN(C)C)C1=O [(S)-Decanoic acid 1-[4-(dimethylamino)2-butynyl]-2-oxo-3-pyrrolidinyl ester]
Ki [1]: 0.023 µM
Ki [2, 3]: 0.6 µM

CCCCCCCCCC(=O)O[C@H]1CCN(CC#CC[N+](C)(C)C)C1=O [(S)-N,N, N-Trimethyl-4-[2-oxo-3-[(1-oxodecyl)oxy]-1-pyrrolidinyl-2-butyn-1-aminium iodide]
Ki [1]: 0.156 µM
Ki [2, 3]: 0.003 µM

CCN(CC)CC#CCN [N,N-Diethyl-2-butyne-1,4-diamine dihydrochloride]
Ki [1]: > 100 µM
Ki [2, 3]: > 100 µM

N[C@@H]1CCN(CC#CCN2CCCC2)C1=O [(R)-3-Amino-1-[4-(1-pyrrolidinyl)-2-butynyl]-2-pyrrolidinone dihydrochloride]
Ki [1]: 0.35 µM
Ki [2, 3]: 6.1 µM

CCCCCCCCOC(=O)O[C@H]1CCN(CC#CC[N+](C)(C)C)C1=O [(S)-N,N, N-Trimethyl-4-[3-[[(octyloxy)carbonyl]oxy]-2-oxo-1-pyrrolidinyl]-2-butyn-1-aminium iodide]
Ki [1]: 0.013 µM
Ki [2, 3]: 0.1 µM

CC(C)(C)[Si](C)(C)OC[C@@H]1CCCN1CC#CCN1CC[C@H](O)C1=O [[S-(R*,R*)]-1-[4-[2-[[[(1,1-Dimethylethyl)dimethylsilyl]-oxy]methyl]-1-pyrrolidinyl]-2-butynyl]-3-hydroxy-2-pyrrolidinone]
Ki [1]: 0.14 µM
Ki [2, 3]: 0.4 µM

CN(CC#CCN1CC[C@@H](O)C1=O)CCCCO [(R)-3-Hydroxy-1-[4-[(4-hydroxybutyl)methylamino]-2-butynyl]-2-pyrrolidinone]
Ki [1]: 1.45 µM
Ki [2, 3]: > 100 µM
